Assay results taken from article PMC10046037, “GABRG2 Variants Associated with Febrile Seizures” (Biomolecules, 2023).

Target: T1, α1β3γ2 GABAA receptor, γ2Y468C variant (Homo sapiens, UniProt P14867+P18507+P28472, Y468C)
T1 construct: expressed in transfected cells; host or cells: HEK293T
T1 sequence (P14867 28-456): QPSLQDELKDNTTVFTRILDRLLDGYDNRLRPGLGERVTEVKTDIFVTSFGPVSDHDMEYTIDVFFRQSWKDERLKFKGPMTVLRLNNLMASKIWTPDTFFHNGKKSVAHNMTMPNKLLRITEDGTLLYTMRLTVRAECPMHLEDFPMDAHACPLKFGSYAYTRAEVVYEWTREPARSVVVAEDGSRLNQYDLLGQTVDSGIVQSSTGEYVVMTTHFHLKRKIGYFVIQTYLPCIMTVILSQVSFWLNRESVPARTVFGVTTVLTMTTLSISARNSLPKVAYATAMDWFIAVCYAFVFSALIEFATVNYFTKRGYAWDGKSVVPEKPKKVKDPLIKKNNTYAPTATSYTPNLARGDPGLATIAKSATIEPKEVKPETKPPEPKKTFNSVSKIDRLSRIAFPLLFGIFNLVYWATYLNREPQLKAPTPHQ
T1 sequence (P28472 26-473 isoform P28472-2): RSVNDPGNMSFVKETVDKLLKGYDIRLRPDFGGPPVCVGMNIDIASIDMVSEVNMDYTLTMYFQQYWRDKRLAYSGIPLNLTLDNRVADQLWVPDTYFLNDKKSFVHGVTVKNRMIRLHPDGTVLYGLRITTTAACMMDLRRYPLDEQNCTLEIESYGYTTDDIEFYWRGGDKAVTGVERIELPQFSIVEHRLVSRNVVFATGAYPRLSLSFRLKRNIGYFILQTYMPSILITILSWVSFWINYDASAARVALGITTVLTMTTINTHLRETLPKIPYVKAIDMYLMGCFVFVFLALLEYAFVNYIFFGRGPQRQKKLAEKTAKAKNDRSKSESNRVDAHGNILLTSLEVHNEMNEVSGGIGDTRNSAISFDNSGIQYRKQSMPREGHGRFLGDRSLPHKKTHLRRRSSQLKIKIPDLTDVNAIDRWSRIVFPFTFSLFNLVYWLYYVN
T1 sequence (P18507 40-475 Y468C): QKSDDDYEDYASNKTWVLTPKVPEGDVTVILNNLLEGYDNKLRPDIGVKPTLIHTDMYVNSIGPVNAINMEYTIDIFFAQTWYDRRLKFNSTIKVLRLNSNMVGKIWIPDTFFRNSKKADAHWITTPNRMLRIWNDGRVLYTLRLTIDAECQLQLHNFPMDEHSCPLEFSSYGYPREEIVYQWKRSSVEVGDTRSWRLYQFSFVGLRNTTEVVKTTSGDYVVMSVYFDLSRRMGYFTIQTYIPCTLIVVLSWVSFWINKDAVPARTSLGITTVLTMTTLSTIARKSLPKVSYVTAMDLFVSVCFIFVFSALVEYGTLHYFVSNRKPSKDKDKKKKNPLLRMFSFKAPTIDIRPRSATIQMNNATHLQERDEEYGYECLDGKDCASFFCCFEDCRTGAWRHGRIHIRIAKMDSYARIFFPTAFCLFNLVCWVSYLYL
Assay: Automated patch clamp of GABA-elicited currents (SyncroPatch 384PE), γ2Y468C
Format: cell-based
Conditions: mean
Procedure: The coding sequences of human α1 (GABRA1, NM_000806), β3 (GABRB3, NM_021912), and γ2 (GABRG2, NM_198904.2) GABAAR subunits were subcloned into the pcDNA3.1 expression vectors (Invitrogen, Waltham, MA, USA).
HEK293T cells (ATCC, CRL-11268) were cultured at 37 °C in a humidified 5% CO2 incubator and maintained in Dulbecco’s modified Eagle’s medium (Invitrogen) supplemented with 10% fetal bovine serum (Life Technologies, Carlsbad, CA, USA), and 100 IU/mL of penicillin/streptomycin (Life Technologies). For the expression experiments, 4 × 10^5 cells were transfected using polyethylenimine (PEI) reagent (40 kD, Polysciences, Warrington, PA, USA) at a DNA: to transfection reagent ratio of 1:2.5 and harvested 36 h after transfection. To express WT and variant α1β3γ2 receptors, a total of 3 µg of α1, β3, and γ2 (WT or mutant) subunit cDNAs were transfected at a ratio of 1:1:1 into 60 mm culture dishes. For the mock-transfected condition, an empty pcDNA3.1 vector was added for a final cDNA transfection amount of 3 μg. For the electrophysiology experiments, 2.5 × 10^5 cells were plated in 100 mm culture dishes and transfected after 24 h with 3 μg of cDNA of each α1, β3, γ2 (wild-type or mutant) subunit, using X-tremeGENE HP DNA transfection Reagent (Roche Diagnostics, Basel, Switzerland), following the manufacturer’s protocol. Recordings were obtained forty-eight hours after transfection.
Whole-cell patch clamp recordings were conducted according to the manufacturer’s standard procedure for the SyncroPatch 384 [31]. Whole-cell voltage-clamp recordings were performed at room temperature on HEK293T cells 48 h after transfection with GABAAR subunits, using the SyncroPatch 384PE (Nanion Technologies, Munich, Germany). Cells, at a concentration of 400,000 cells/mL, were harvested in suspension in external solution containing 140 mM of NaCl, 2 mM of CaCl2, 4 mM of KCl, 1 mM of MgCl2, 5 mM of glucose, and 10 mM of HEPES (pH 7.4 with NaOH, 298 mOsm). The cells were loaded in a multi-hole (4 holes per well) 384-well Nanion patch clamp (NPC) chip with a thick borosilicate glass bottom and an average resistance pore size of […]. Built-in electrophysiological protocols were used, and the data were digitized using PatchControl 384 (Nanion Technologies) application. Using PatchControl 384, electrophysiological parameters, such as seal resistance, capacitance, and series resistance, were determined for each well after the application of a test pulse, and subsequently monitored over time. […] The currents were normalized to the maximal response of each well, and the concentration–response curves were calculated from single-point additions. The EC50 values for each variant or wild-type receptor were calculated across multiple wells for each experimental condition.

- Deactivation (1 mM GABA for 5 ms, HEK293T, -80 mV): 433.9 ms
- IMAX (maximal GABA-evoked peak current) (1 mM GABA for 5 ms, HEK293T): 0.80 nA
- IMAX variant/IMAX WT (1 mM GABA): 40.06%
- Rise Time (10–90% rise time, 1 mM GABA for 5 ms, HEK293T): 26.52 ms
SMILES: NCCCC(=O)O [GABA, γ-aminobutyric acid]
